This note sets out measurements from ChEMBL document CHEMBL1201862, “PubChem BioAssay data set” (2004).

Among the test systems are CCRF-CEM; EKVX; HL-60; HOP-62; LOX IMVI; M14; NCI-H460; RXF 393; SF-539; SK-MEL-28; SK-OV-3; SN12C; SNB-19; U-251; UACC-62.
Common to all, as to test: NCI anticancer screen, dose series, 48 h

Molecules are shown by their SMILES.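 Where inhibition never reached the appropriate level, the endpoint shown equals the highest concentration tested. Otherwise, values were interpolated linearly from a five-concentration, 48-hour dose response in 96-well plates. Here, GI50 denotes the concentration required for 50% inhibition of growth.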 Active and inactive are the calls of the source. Cut-off read from the data, not from the text of the source: active = GI50 up to about 1.1 µM and inactive = higher.

`CCNc1nc2c(=O)n(C)c(=O)n(C)c2s1`: the GI50 in the assay with CCRF-CEM, in the assay on EKVX, with HL-60, with HOP-62, in the assay with LOX IMVI and in the assay on M14 was > 100 µM (inactive) throughout. For the same compound, the GI50 in the assay with NCI-H460, in the assay on RXF 393, with SF-539, in the assay on SK-MEL-28, in the assay with SK-OV-3 and in the assay with SN12C was > 100 µM (inactive) in each case. The GI50 with SNB-19, in the assay on U-251 and in the assay on UACC-62 was > 100 µM (inactive) in each case.

For `O=C(/C=C/c1ccc(OCCCOc2ccc(/C=C/C(=O)c3ccc(Cl)cc3)cc2)cc1)c1ccc(Cl)cc1`, the GI50 in the assay with CCRF-CEM, in the assay with EKVX, in the assay on HL-60, in the assay on HOP-62, in the assay with LOX IMVI and in the assay with M14 was > 100 µM (inactive) in each case. Besides, the GI50 with NCI-H460, with RXF 393, with SF-539, with SK-MEL-28, in the assay with SK-OV-3 and with SN12C was > 100 µM (inactive) throughout. Also, the GI50 with SNB-19, with U-251 and in the assay on UACC-62 was > 100 µM (inactive) in each case.

On to `CC1CCC2(OC1)OC1CC3C4CCC5CC(O)CCC5(C)C4CC(=O)OC3(C)C1C2C` (stereo not drawn), for which the GI50 in the assay on CCRF-CEM, with EKVX, in the assay with HL-60, with HOP-62, in the assay with LOX IMVI and in the assay with M14 was > 100 µM (inactive) in each case. Also, the GI50 in the assay on NCI-H460, with RXF 393, with SF-539, in the assay with SK-MEL-28, in the assay with SK-OV-3 and in the assay on SN12C was > 100 µM (inactive) each time. The GI50 with SNB-19, in the assay on U-251 and in the assay with UACC-62 was > 100 µM (inactive) throughout.

With `O=C(c1ccccc1)C(c1ccccc1)C1(O)C(=O)Nc2ccc([N+](=O)[O-])cc21` (stereo not drawn), the GI50 in the assay with CCRF-CEM is 41.9 µM (inactive); in the assay on EKVX, > 100 µM (inactive); in the assay with HL-60, 42.9 µM (inactive); in the assay on HOP-62, > 100 µM (inactive); with LOX IMVI, 69.7 µM (inactive); with M14, > 100 µM (inactive). The GI50 in the assay with NCI-H460 was > 100 µM (inactive); in the assay with RXF 393, > 100 µM (inactive); in the assay on SF-539, > 100 µM (inactive); in the assay with SK-MEL-28, > 100 µM (inactive); with SK-OV-3, 19.4 µM (inactive); in the assay on SN12C, 62.4 µM (inactive). For the same compound, the GI50 in the assay on SNB-19 was > 100 µM (inactive); in the assay on U-251, > 100 µM (inactive); in the assay with UACC-62, 58.1 µM (inactive).

Consider `COc1cccc(NC(=O)C(C)(C)C)c1C=O`, for which the GI50 was 32.1 µM (inactive) with CCRF-CEM; 35.3 µM (inactive) in the assay with EKVX; 26.7 µM (inactive) in the assay with HL-60; > 100 µM (inactive) with HOP-62; 46.1 µM (inactive) with LOX IMVI; 70.8 µM (inactive) in the assay with M14. Moreover, the GI50 in the assay on NCI-H460 is > 100 µM (inactive); with SF-539 it was 68.4 µM (inactive); in the assay on SK-MEL-28, > 100 µM (inactive); in the assay on SK-OV-3, 82.8 µM (inactive); in the assay with SN12C, 63.1 µM (inactive); in the assay with SNB-19 it was 51.2 µM (inactive). The GI50 with U-251 was 36.6 µM (inactive); in the assay on UACC-62 it was 74.3 µM (inactive).

Consider `[N-]=[N+]=N/C1=C/CCCCC(=O)C1`, for which the GI50 with CCRF-CEM, in the assay on EKVX, with HL-60, in the assay with HOP-62, with LOX IMVI and in the assay on M14 was > 100 µM (inactive) throughout. In addition, the GI50 in the assay with NCI-H460, with RXF 393, with SK-MEL-28, in the assay with SK-OV-3, in the assay with SN12C and in the assay with SNB-19 was > 100 µM (inactive) each time. The GI50 in the assay with UACC-62 was > 100 µM (inactive).

As to `[O-][n+]1c2cc3c(cc2[n+]([O-])c2c(O)cccc21)CN(CCN1CCOCC1)C3`, the GI50 in the assay on CCRF-CEM was 6.12 µM (inactive); in the assay on EKVX, 14.9 µM (inactive); in the assay with HL-60, 5.7 µM (inactive); in the assay with M14, 49.5 µM (inactive); in the assay with NCI-H460, 7.18 µM (inactive); with RXF 393, 16.1 µM (inactive). The GI50 in the assay on SK-MEL-28 was > 100 µM (inactive); with SK-OV-3 it was 17.1 µM (inactive); in the assay on SN12C, 29 µM (inactive); in the assay with SNB-19, 73.5 µM (inactive); in the assay with U-251, 12.1 µM (inactive); in the assay on UACC-62, 24.8 µM (inactive).

On to `O=[N+]([O-])c1cc(C(F)(F)F)cc([N+](=O)[O-])c1CCl`, for which the GI50 in the assay with CCRF-CEM is 0.0993 µM (active); with EKVX, 6.81 µM (inactive); in the assay with HL-60, 1.31 µM (inactive); in the assay on HOP-62, 16.1 µM (inactive); with LOX IMVI it was 0.0826 µM (active); in the assay with M14, 0.53 µM (active). The GI50 is 5.78 µM (inactive) with NCI-H460; 1.73 µM (inactive) with RXF 393; 4.81 µM (inactive) with SF-539; 4.84 µM (inactive) in the assay with SK-MEL-28; 5.73 µM (inactive) in the assay on SK-OV-3; 1.55 µM (inactive) in the assay with SN12C. Also, the values for the GI50 in the assay with SNB-19, with U-251 and in the assay on UACC-62 were 7.35 µM (inactive), 3.61 µM (inactive) and 0.336 µM (active), respectively.

For `C#CCNC(=O)NCCCCC(NC(=O)OCc1ccccc1)C(=O)OCc1ccccc1` (stereo not drawn), the GI50 is 18.5 µM (inactive) with CCRF-CEM; > 100 µM (inactive) in the assay with EKVX; 18 µM (inactive) in the assay on HL-60; 39.1 µM (inactive) in the assay on LOX IMVI; 37.6 µM (inactive) in the assay on M14; 52.2 µM (inactive) in the assay with NCI-H460. For the same compound, the GI50 was > 100 µM (inactive) in the assay with RXF 393; > 60.5 µM (inactive) in the assay with SF-539; > 100 µM (inactive) with SK-MEL-28; > 100 µM (inactive) in the assay on SK-OV-3; > 83.8 µM (inactive) with SN12C; > 100 µM (inactive) in the assay with SNB-19. The GI50 in the assay with U-251 was > 64.6 µM (inactive); in the assay with UACC-62, 63.5 µM (inactive).

Turning to `COc1cccc(NC(=O)C(=O)C2C=CCS2(=O)=O)c1` (stereo not drawn), the GI50 in the assay with CCRF-CEM, in the assay on EKVX, in the assay on HL-60, with HOP-62, in the assay with LOX IMVI and with M14 was > 100 µM (inactive) throughout. For the same compound, the GI50 in the assay with NCI-H460, in the assay with RXF 393, in the assay on SF-539, in the assay on SK-MEL-28, in the assay on SK-OV-3 and in the assay with SN12C was > 100 µM (inactive) in each case. Further, the GI50 in the assay on SNB-19, in the assay with U-251 and in the assay with UACC-62 was > 100 µM (inactive) in each case.
